Data as given in US20150344444A1, “BET-PROTEIN-INHIBITING DIHYDROXYQUINOXALINONES” (BAYER PHARMA AKTIENGESELLSCHAFT, priority 2012, published 2015).

How the values were obtained:
[1] = target: T1, BRD4 Bromo Domain 1 [BRD4(1)] (Homo sapiens, UniProt O60885); experiment: BRD4(1)/acetylated peptide H4 binding assay (TR-FRET); conditions: inhibition of interaction between His6-tagged BRD4(1) (amino acids 67-152) and acetylated histone H4 peptide
T1 construct: N-terminally His6-tagged BRD4(1) (amino acids 67-152); made in house; host or cells: E. coli
Source text: Protein-Protein Interaction Assay: BRD4/Acetylated Peptide H4 Binding Assay
1. Assay Description for BRD4 Bromo Domain 1 [BRD4(1)]
To assess the BRD4(1) binding strength of the substances described in this application, the ability thereof to inhibit the interaction between BRD4(1) and acetylated histone H4 in a dose-dependent manner was quantified.
For this purpose, a time-resolved fluorescence resonance energy transfer (TR-FRET) assay was used, which measures the binding between N-terminally His6-tagged BRD4(1) (amino acids 67-152) and a synthetic acetylated histone H4 (Ac-H4) peptide with sequence GRGK(Ac)GGK(Ac)GLGK(Ac)GGAK(Ac)RHGSGSK-biotin. The recombinant BRD4(1) protein produced in house according to Filippakopoulos et al., Cell, 2012, 149:214-231 was expressed in E. coli and purified by means of (Ni-NTA) affinity and (Sephadex G-75) size exclusion chromatography. The Ac-H4 peptide can be purchased, for example, from Biosyntan (Berlin, Germany).
In the assay, typically 11 different concentrations of each substance (0.1 nM, 0.33 nM, 1.1 nM, 3.8 nM, 13 nM, 44 nM, 0.15 μM, 0.51 μM, 1.7 μM, 5.9 μM and 20 μM) were analysed as duplicates on the same microtitre plate. For this purpose, 100-fold concentrated solutions in DMSO were prepared by serial dilutions (1:3.4) of a 2 mM stock solution into a clear, 384-well microtitre plate (Greiner Bio-One, Frickenhausen, Germany). From this, 50 nl were transferred into a black test plate (Greiner Bio-One, Frickenhausen, Germany). The test was started by the addition of 2 μl of a 2.5-fold concentrated BRD4(1) solution (final concentration typically 10 nM in the 5 μl of reaction volume) in aqueous assay buffer [50 mM HEPES pH 7.5, 50 mM sodium chloride (NaCl), 0.25 mM CHAPS and 0.05% serum albumin (BSA)] to the substances in the test plate. This was followed by a 10-minute incubation step at 22° C. for the pre-equilibration of putative complexes between BRD4(1) and the substances.
The mixture was then incubated in the dark at 22° C. for one hour and then at 4° C. for at least 3 hours and for no longer than overnight. The formation of BRD4(1)/Ac-H4 complexes was determined by the measurement of the resonance energy transfer from the streptavidin-Eu cryptate to the anti-6His-XL665 antibody present in the reaction. For this purpose, the fluorescence emission was measured at 620 nm and 665 nm after excitation at 330-350 nm in a TR-FRET measuring instrument, for example a Rubystar or Pherastar (both from BMG Lab Technologies, Offenburg, Germany) or a Viewlux (Perkin-Elmer). The ratio of the emissions at 665 nm and at 622 nm was taken as an indicator of the amount of BRD4(1)/Ac-H4 complexes formed.
The data (ratios) obtained were normalized, with 0% inhibition corresponding to the mean from the measurements for a set of controls (typically 32 data points) in which all the reagents were present. In these, in place of test substances, 50 nl of DMSO (100%) were used Inhibition of 100% corresponded to the mean from the measurements for a set of controls (typically 32 data points) in which all the reagents except BRD4(1) were present. The IC50 was determined by regression analysis based on a 4-parameter equation (minimum, maximum, IC50, Hill; Y=max+(min−max)/(1+(X/IC50)Hill).

MOLM-13 cells = experiment: MOLM-13 cell proliferation assay (alamarBlue); format: cell-based; conditions: inhibition of cell proliferation, 96 hours, human AML cell line
Description: (§1) In accordance with the invention, the ability of the substances to inhibit cell proliferation was determined Cell viability was determined by means of the alamarBlue® reagent (Invitrogen) in a Victor X3 Multilabel Reader (Perkin Elmer). The excitation wavelength was 530 nm and the emission wavelength […].
The MOLM-13 cells (DSMZ, ACC 554) were sown at a concentration of 4000 cells/well in 100 μl of growth medium (RPMI1640, 10% FCS) on 96-well microtitre plates.
(§2) After overnight incubation at 37° C., the fluorescence values were determined (CI values). Then the plates were treated with various substance dilutions (1E-5 M, 3E-6 M, 1E-6 M, 3E-7 M, 1E-7 M, 3E-8 M, 1E-8 M) and incubated at 37° C. over 96 hours (MOLM-13, B16F10 cells) or 120 hours (MOLP-8 cells). Subsequently, the fluorescence values were determined (CO values). For the data analysis, the CI values were subtracted from the CO values and the results were compared between cells which had been treated with various dilutions of the substance or only with buffer solution. The IC50 values (substance concentration needed for 50% inhibition of cell proliferation) were calculated therefrom.
MOLM-13 human AML (acute myeloid leukaemia) cell line

B16F10 cells = experiment: B16F10 cell proliferation assay (alamarBlue); format: cell-based; conditions: B16-F10; inhibition of cell proliferation, 96 hours, mouse melanoma cell line
Description: as §1
The B16F10 cells (ATCC, CRL-6475) were sown at a concentration of 300-500 cells/well in 100 μl of growth medium (DMEM with phenol red, 10% FCS) on 96-well microtitre plates.
as §2
B16F10 mouse melanoma cell line

C[C@@H]1C(=O)N(C)c2ccc(Nc3ccc(S(=O)(=O)N4CCOCC4)cc3)cc2N1C1CCOCC1 [Example 47, (3R)-1,3-dimethyl-6-{[4-(morpholin-4-ylsulphonyl)phenyl]amino}-4-(tetrahydro-2H-pyran-4-yl)-3,4-dihydroquinoxalin-2(1H)-one]
IC50 [1]: 95 nM
IC50 (MOLM-13 cells): 407 nM
IC50 (B16F10 cells): 423 nM

COc1cc(C(=O)NC2CCN(C)CC2)ccc1Nc1ccc2c(c1)N(C1CCOCC1)[C@H](C)C(=O)N2C [Example 36, 4-{[(3R)-1,3-dimethyl-2-oxo-4-(tetrahydro-2H-pyran-4-yl)-1,2,3,4-tetrahydroquinoxalin-6-yl]amino}-3-methoxy-N-(1-methylpiperidin-4-yl)benzamide]
IC50 [1]: 482 nM
IC50 (MOLM-13 cells): 1080 nM
IC50 (B16F10 cells): 2090 nM

C[C@@H]1C(=O)N(C)c2ccc(Nc3ccc(S(=O)(=O)N(C)C)cc3)cc2N1Cc1ccccc1 [Example 14, 4-{[(3R)-4-benzyl-1,3-dimethyl-2-oxo-1,2,3,4-tetrahydroquinoxalin-6-yl]amino}-N,N-dimethylbenzenesulphonamide]
IC50 [1]: 283 nM
IC50 (MOLM-13 cells): 233 nM
IC50 (B16F10 cells): 178 nM

C[C@@H]1C(=O)N(C)c2ccc(Nc3ccc(S(=O)(=O)N(C)C)cc3)cc2N1C1CCCCCC1 [Example 45, 4-{[(3R)-4-cycloheptyl-1,3-dimethyl-2-oxo-1,2,3,4-tetrahydroquinoxalin-6-yl]amino}-N,N-dimethylbenzenesulphonamide]
IC50 [1]: 264 nM
IC50 (MOLM-13 cells): 1340 nM
IC50 (B16F10 cells): 1570 nM

C[C@@H]1C(=O)N(C)c2ccc(Nc3ccc(S(=O)(=O)N4CCN(C)CC4)cc3)cc2N1Cc1ccccc1 [Example 15, (3R)-4-benzyl-1,3-dimethyl-6-({4-[(4-methylpiperazin-1-yl)sulphonyl]phenyl}amino)-3,4-dihydroquinoxalin-2(1H)-one]
IC50 [1]: 128 nM
IC50 (MOLM-13 cells): 90 nM
IC50 (B16F10 cells): 224 nM

C[C@@H]1C(=O)N(C)c2ccc(Nc3ccc(C(=O)NC4CCN(C)CC4)cc3)cc2N1C1CCOCC1 [Example 26, 4-{[(3R)-1,3-dimethyl-2-oxo-4-(tetrahydro-2H-pyran-4-yl)-1,2,3,4-tetrahydroquinoxalin-6-yl]amino}-N-(1-methylpiperidin-4-yl)benzamide]
IC50 [1]: 374 nM
IC50 (MOLM-13 cells): 1580 nM
IC50 (B16F10 cells): 4010 nM

C[C@@H]1C(=O)N(C)c2ccc(Nc3ccc(C(=O)NC4CC4)cc3)cc2N1C1CCCC1 [Example 2, 4-{[(3R)-4-cyclopentyl-1,3-dimethyl-2-oxo-1,2,3,4-tetrahydroquinoxalin-6-yl]amino}-N-cyclopropylbenzamide]
IC50 [1]: 144 nM
IC50 (MOLM-13 cells): 811 nM
IC50 (B16F10 cells): 1690 nM

CC(C)N1CCN(C(=O)c2ccc(Nc3ccc4c(c3)N(C3CCOCC3)[C@H](C)C(=O)N4C)cc2)CC1 [Example 33]
IC50 [1]: 310 nM
IC50 (MOLM-13 cells): 1050 nM
IC50 (B16F10 cells): 1750 nM

C[C@@H]1C(=O)N(C)c2ccc(Nc3ccc(C(=O)N4CCOCC4)cc3)cc2N1C1CCOCC1 [Example 27, (3R)-1,3-dimethyl-6-{[4-(morpholin-4-ylcarbonyl)phenyl]amino}-4-(tetrahydro-2H-pyran-4-yl)-3,4-dihydroquinoxalin-2(1H)-one]
IC50 [1]: 230 nM
IC50 (MOLM-13 cells): 1950 nM
IC50 (B16F10 cells): 2490 nM

C[C@@H]1C(=O)N(C)c2ccc(Nc3ccc(C(=O)NC4CCN(C)CC4)cc3)cc2N1Cc1c(F)cccc1F (stereo in doubt) [Example 39, 4-{[4-(2,6-difluorobenzyl)-1,3-dimethyl-2-oxo-1,2,3,4-tetrahydroquinoxalin-6-yl]amino}-N-(1-methylpiperidin-4-yl)benzamide]
IC50 [1]: 1040 nM
IC50 (MOLM-13 cells): 2850 nM
IC50 (B16F10 cells): 3280 nM

COc1ccc(CN2c3cc(Nc4ccc(S(=O)(=O)N5CCOCC5)cc4)ccc3N(C)C(=O)[C@H]2C)cc1 [Example 42, (3R)-4-(4-methoxybenzyl)-1,3-dimethyl-6-{[4-(morpholin-4-ylsulphonyl)phenyl]amino}-3,4-dihydroquinoxalin-2(1H)-one]
IC50 [1]: 120 nM
IC50 (MOLM-13 cells): 149 nM
IC50 (B16F10 cells): 79 nM

COc1ccc(CN2c3cc(Nc4ccc(S(=O)(=O)N5CCN(C(C)C)CC5)cc4)ccc3N(C)C(=O)[C@H]2C)cc1 [Example 44, (3R)-4-(4-methoxybenzyl)-1,3-dimethyl-6-[(4-{[4-(propan-2-yl)piperazin-1-yl]sulphonyl}phenyl)amino]-3,4-dihydroquinoxalin-2(1H)-one]
IC50 [1]: 55 nM
IC50 (MOLM-13 cells): 340 nM
IC50 (B16F10 cells): 460 nM

C[C@@H]1C(=O)N(C)c2ccc(Nc3ccc(C(=O)N4CC5(CCS5(=O)=O)C4)cc3)cc2N1Cc1ccccc1 [Example 16, (3R)-4-benzyl-6-({4-[(1,1-dioxido-1-thia-6-azaspiro[3.3]hept-6-yl)carbonyl]phenyl}amino)-1,3-dimethyl-3,4-dihydroquinoxalin-2(1H)-one]
IC50 [1]: 257 nM
IC50 (MOLM-13 cells): 374 nM
IC50 (B16F10 cells): 251 nM

C[C@@H]1C(=O)N(C)c2ccc(Nc3ccc(C(=O)NC4CCCC4)cc3)cc2N1C1CCCC1 [Example 1, N-cyclopentyl-4-{[(3R)-4-cyclopentyl-1,3-dimethyl-2-oxo-1,2,3,4-tetrahydroquinoxalin-6-yl]amino}benzamide]
IC50 [1]: 173 nM
IC50 (MOLM-13 cells): 1160 nM
IC50 (B16F10 cells): 1500 nM

COc1ccc(CN2c3cc(Nc4ccc(C(=O)NC5CCN(C)CC5)cc4)ccc3N(C)C(=O)[C@H]2C)cc1 [Example 17, 4-{[(3R)-4-(4-methoxybenzyl)-1,3-dimethyl-2-oxo-1,2,3,4-tetrahydroquinoxalin-6-yl]amino}-N-(1-methylpiperidin-4-yl)benzamide]
IC50 [1]: 114 nM
IC50 (MOLM-13 cells): 315 nM
IC50 (B16F10 cells): 378 nM

COc1ccc(CN2c3cc(Nc4ccc(C(=O)NCC5COC5)cc4)ccc3N(C)C(=O)[C@H]2C)cc1 [Example 19, 4-{[(3R)-4-(4-methoxybenzyl)-1,3-dimethyl-2-oxo-1,2,3,4-tetrahydroquinoxalin-6-yl]amino}-N-(oxetan-3-ylmethyl)benzamide]
IC50 [1]: 148 nM
IC50 (MOLM-13 cells): 335 nM
IC50 (B16F10 cells): 248 nM

C[C@@H]1C(=O)N(C)c2ccc(Nc3ccc(C(=O)NC4CC4)cc3)cc2N1C1CCOCC1 [Example 35, N-cyclopropyl-4-{[(3R)-1,3-dimethyl-2-oxo-4-(tetrahydro-2H-pyran-4-yl)-1,2,3,4-tetrahydroquinoxalin-6-yl]amino}benzamide]
IC50 [1]: 365 nM
IC50 (MOLM-13 cells): 2480 nM
IC50 (B16F10 cells): 2400 nM
